Laboratory results as given in patent publication US20160257697A1, “THIOPHENE-SUBSTITUTED TETRACYCLIC COMPOUNDS AND METHODS OFUSE THEREOF FOR THE TREATMENT OF VIRAL DISEASES” (priority 2013, published 2016).
Where two headings read alike, the source gives them in different places.

Columns and labels:
Assay in all cases: microbe, parasite or virus in culture
Assay type in all cases: cell-based, Hepatitis C virus (HCV)
HCV replicon 1AQ30D = details: Replicon Assay B
HCV replicon 1B = details: Replicon Assay B
HCV replicon 1AY93H = details: Replicon Assay A
How it was run: (§1)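 Read-out is replicon RNA per cell by real-time RT-PCR, normalised to cyclophilin mRNA amplified in the same well. Cells were exposed to compound for 3 days at 2000 cells/well in medium with 5% fetal bovine serum and 0.5% DMSO.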

HCV replicon 1A = details: Replicon Assay A
How it was run: as §1

HCV replicon 2B = details: Replicon Assay A
How it was run: as §1

[1] = read-out: 1A Q30D IC50, replicon 1AQ30D
[2] = read-out: 1A Y93H IC50, replicon 1AY93H
[3] = Hepatitis C virus, read-out: 1A Q30D IC50 (nM), replicon 1AQ30D
[4] = Hepatitis C virus, read-out: 1A Y93H IC50 (nM), replicon 1AY93H
[5] = Hepatitis C virus, read-out: 2B IC50 (nM), replicon 2B
[6] = Hepatitis C virus, read-out: 1A Q30D IC50, HCV replicon 1A Q30D
[7] = Hepatitis C virus, HCV replicon 1B
[8] = read-out: 1A Y93H IC50, HCV replicon 1A Y93H
[9] = read-out: 2B IC50, HCV replicon 2B
[10] = read-out: 1A Q30D IC50, HCV replicon 1A Q30D

Row | SMILES | IC50 (HCV replicon 1AY93H; [2]) [nM] | IC50 (HCV replicon 2B; read-out: 2B IC50, replicon 2B) [nM] | IC50 (HCV replicon 1AQ30D; [3]) [nM] | IC50 (HCV replicon 1B; Hepatitis C virus, replicon 1B) [pM] | IC50 (HCV replicon 1A; Hepatitis C virus, replicon 1A) [pM] | IC50 (HCV replicon 1AY93H; [8]) [nM] | IC50 (HCV replicon 1A; HCV replicon 1A) [pM] | IC50 (HCV replicon 2B; [9]) [nM] | also measured
1 | CCc1ccc(C2Oc3cc(-c4cnc([C@@H]5CCCN5C(=O)C(NC(=O)OC)C5CCOC(C)(C)C5)[nH]4)cc(F)c3-c3cc4cc(-c5cnc([C@@H]6CCCN6C(=O)C(NC(=O)OC)C6CCOC(C)(C)C6)[nH]5)ccc4n32)s1 (single isomer, unassigned) [Compound 295] | 0.005 | 0.004 | – | – | – | – | – | – | IC50 (HCV replicon 1AQ30D; [1]): 0.017 nM; IC50 (HCV replicon 1B; replicon 1B): 2.8 pM; IC50 (HCV replicon 1A; replicon 1A): 3.2 pM
2 | COC(=O)NC(C(=O)N1CCC[C@H]1c1ncc(-c2ccc3c(c2)cc2n3C(c3ccc(C(F)F)s3)Oc3cc(-c4cnc([C@@H]5CCCN5C(=O)[C@@H](NC(=O)OC)C(C)C)[nH]4)cc(F)c3-2)[nH]1)C1C[C@@H](C)O[C@@H](C)C1 (single isomer, unassigned) [Compound 266] | 0.003 | 0.008 | 0.051 | 1.5 | 1.1 | – | – | – | –
3 | COC(=O)N[C@H](C(=O)N1CCC[C@H]1c1ncc(-c2ccc3c(c2)OC(c2ccc(C4CC4)s2)n2c-3cc3cc(-c4cnc([C@@H]5CCCN5C(=O)[C@@H](NC(=O)OC)C(C)C)[nH]4)ccc32)[nH]1)C(C)C (stereo partly drawn) [Compound 2] | – | – | 0.1 | 2.4 | 2.9 | – | – | – | IC50 (HCV replicon 1AY93H; [4]): 0.032 nM; IC50 (HCV replicon 2B; [5]): 0.033 nM
4 | COC(=O)N[C@H](C(=O)N1[C@@H]2C[C@@H]2C[C@H]1c1ncc(-c2cc(F)c3c(c2)OC(c2ccc(C4CC4)s2)n2c-3cc3cc(-c4cnc([C@@H]5C[C@H]6C[C@H]6N5C(=O)[C@@H](NC(=O)OC)C(C)C)[nH]4)ccc32)[nH]1)C(C)C (single isomer, unassigned) [Compound 87] | 0.002 | 0.19 | 0.15 | 1.3 | 1.2 | – | – | – | –
5 | CCc1ccc(C2Oc3cc(-c4cnc([C@@H]5CCCN5C(=O)[C@@H](NC(=O)OC)C(C)C)[nH]4)cc(F)c3-c3cc4cc(-c5cnc([C@@H]6CCCN6C(=O)[C@@H](NC(=O)OC)C6CCOCC6)[nH]5)ccc4n32)s1 (single isomer, unassigned) [Compound 336] | 0.062 | 0.128 | – | 1.1 | 2.2 | – | – | – | IC50 (HCV replicon 1AQ30D; [1]): 1.5 nM
6 | COCc1ccc(C2Oc3cc(-c4cnc([C@@H]5CCCN5C(=O)[C@@H](NC(=O)OC)C(C)C)[nH]4)cc(F)c3-c3cc4cc(-c5c[nH]c([C@@H]6CCCN6C(=O)[C@@H](NC(=O)OC)C(C)C)n5)ccc4n32)s1 (single isomer, unassigned) [Compound 513] | – | – | – | – | – | 0.0385 | 3.93 | 0.409 | IC50 (HCV replicon 1AQ30D; [6]): 0.986 nM; IC50 (HCV replicon 1B; [7]): 4.25 pM
7 | COC(=O)N[C@H](C(=O)N1CCC[C@H]1c1ncc(-c2cc(F)c3c(c2)OC(c2ccc(C4CC4)s2)n2c-3c(F)c3cc(-c4cnc([C@@H]5CCCC5C(=O)[C@@H](NC(=O)OC)C5CCOCC5)[nH]4)ccc32)[nH]1)C(C)C (single isomer, unassigned) [Compound 363] | 0.0048 | 0.0037 | – | – | – | – | – | – | IC50 (HCV replicon 1AQ30D; [1]): 0.0439 nM; IC50 (HCV replicon 1B; replicon 1B): 2.1 pM; IC50 (HCV replicon 1A; replicon 1A): 1.5 pM
8 | COC(=O)NC(C(=O)N1CCC[C@H]1c1ncc(-c2ccc3c(c2)cc2n3C(c3ccc(C4CC4)s3)Oc3cc(-c4cnc([C@@H]5CCCN5C(=O)[C@@H](NC(=O)OC)C(C)C)[nH]4)cc(F)c3-2)[nH]1)C1CCO[C@H](C)C1 (single isomer, unassigned) [Compound 139] | 0.085 | 0.11 | – | – | – | – | – | – | IC50 (HCV replicon 1AQ30D; [1]): 1.03 nM; IC50 (HCV replicon 1B; replicon 1B): 1.4 pM; IC50 (HCV replicon 1A; replicon 1A): 1.9 pM
9 | COC(=O)N[C@H](C(=O)N1CCC[C@H]1c1ncc(-c2cc(C)c3c(c2)OC(c2ccc(C4CC4)s2)n2c-3cc3cc(-c4cnc([C@@H]5C[C@H]6C[C@H]6N5C(=O)[C@@H](NC(=O)OC)C5CCOCC5)[nH]4)ccc32)[nH]1)C(C)C (single isomer, unassigned) [Compound 764] | – | – | – | – | – | 0.0044 | 3.6 | 0.0052 | IC50 (HCV replicon 1AQ30D; [10]): 0.024 nM; IC50 (HCV replicon 1B; HCV replicon 1B): 2.2 pM
10 | COC(=O)N[C@H](C(=O)N1CCC[C@H]1c1ncc(-c2ccc3c(c2)OC(c2cc4sccc4s2)n2c-3cc3cc(-c4c[nH]c([C@@H]5C[C@H]6C[C@H]6N5C(=O)[C@@H](NC(=O)OC)C(C)C)n4)ccc32)[nH]1)C(C)C (single isomer, unassigned) [Compound 716] | – | – | – | – | – | 1.28 | 3.8 | 2.33 | IC50 (HCV replicon 1AQ30D; [6]): 28 nM; IC50 (HCV replicon 1B; [7]): 4 pM
11 | COC(=O)N[C@H](C(=O)N1CCC[C@H]1c1ncc(-c2cc(F)c3c(c2)OC(c2cc4c(s2)CCC4)n2c-3cc3cc(-c4cnc([C@@H]5CCCN5C(=O)[C@@H](NC(=O)OC)C5CCOCC5)[nH]4)ccc32)[nH]1)C(C)C (single isomer, unassigned) [Compound 622] | – | – | – | – | – | 0.0044 | 2.4 | 0.0068 | IC50 (HCV replicon 1AQ30D; [10]): 0.0594 nM; IC50 (HCV replicon 1B; HCV replicon 1B): 2.2 pM
12 | COC(=O)N[C@H](C(=O)N1CCC[C@H]1c1ncc(-c2ccc3c(c2)OC(c2ccc(C4CC4)s2)n2c-3c(F)c3cc(-c4cnc([C@@H]5C[C@H]6C[C@H]6N5C(=O)[C@@H](NC(=O)OC)C(C)C)[nH]4)ccc32)[nH]1)C(C)C (single isomer, unassigned) [Compound 613] | – | – | – | – | – | 0.0157 | 2.5 | 0.342 | IC50 (HCV replicon 1AQ30D; [10]): 0.992 nM; IC50 (HCV replicon 1B; HCV replicon 1B): 2.3 pM
13 | COC(=O)N[C@H](C(=O)N1CCC[C@H]1c1ncc(-c2cc(F)c3c(c2)OC(c2ccc(C4(O)CC4)s2)n2c-3cc3cc(-c4cnc([C@@H]5CCCN5C(=O)[C@@H](NC(=O)OC)C(C)C)[nH]4)ccc32)[nH]1)C(C)C (single isomer, unassigned) [Compound 60] | – | – | 0.35 | 1.3 | 1.5 | – | – | – | IC50 (HCV replicon 1AY93H; [4]): 0.014 nM; IC50 (HCV replicon 2B; [5]): 0.023 nM
14 | COC(=O)NC(C(=O)N1CCC[C@H]1c1ncc(-c2ccc3c(c2)cc2n3C(c3ccc(CC4CC4)s3)Oc3cc(-c4cnc([C@@H]5CCCN5C(=O)[C@@H](NC(=O)OC)C(C)C)[nH]4)cc(F)c3-2)[nH]1)C1C[C@@H](C)O[C@@H](C)C1 (single isomer, unassigned) [Compound 375] | – | – | 0.315 | 2.6 | 1.5 | – | – | – | IC50 (HCV replicon 1AY93H; [4]): 0.0269 nM; IC50 (HCV replicon 2B; [5]): 0.024 nM
15 | COC(=O)N[C@H](C(=O)N1CCC[C@H]1c1ncc(-c2cc(F)c3c(c2)OC(c2ccc(CC(C)C)s2)n2c-3cc3cc(-c4cnc([C@@H]5CCCN5C(=O)[C@@H](NC(=O)OC)C(C)C)[nH]4)ccc32)[nH]1)C(C)C (single isomer, unassigned) [Compound 520] | – | – | – | – | – | 0.0828 | 9.47 | 0.593 | IC50 (HCV replicon 1AQ30D; [6]): 1.91 nM; IC50 (HCV replicon 1B; [7]): 9.24 pM
16 | COC(=O)N[C@H](C(=O)N1CCC[C@H]1c1ncc(-c2ccc3c(c2)cc2n3C(c3ccc(C4CC4)s3)Oc3cc(-c4cnc([C@@H]5CCCN5C(=O)[C@@H](NC(=O)OC)C5CCOCC5)[nH]4)cc(C)c3-2)[nH]1)C(C)C (single isomer, unassigned) [Compound 123] | 0.59 | 0.064 | – | – | – | – | – | – | IC50 (HCV replicon 1AQ30D; [1]): 0.38 nM; IC50 (HCV replicon 1B; replicon 1B): 3.1 pM; IC50 (HCV replicon 1A; replicon 1A): 1.2 pM
17 | COC(=O)NC(C(=O)N1CCC[C@H]1c1ncc(-c2cc(F)c3c(c2)OC(c2ccc(C)s2)n2c-3cc3cc(-c4cnc([C@@H]5CCCN5C(=O)[C@@H](NC(=O)OC)C5CCOCC5)[nH]4)ccc32)[nH]1)C(C)(C)F (single isomer, unassigned) [Compound 106] | – | – | – | 1.5 | 2.1 | – | – | – | IC50 (HCV replicon 1AQ30D; [1]): 0.03 nM; IC50 (HCV replicon 1AY93H; [4]): 0.16 nM; IC50 (HCV replicon 2B; [5]): 0.35 nM
18 | COC(=O)N[C@H](C(=O)N1CCC[C@H]1c1ncc(-c2cc(C)c3c(c2)OC(c2ccc(C4CC4)s2)n2c-3cc3cc(-c4cnc([C@@H]5CCCN5C(=O)[C@@H](NC(=O)OC)C(C)C)[nH]4)ccc32)[nH]1)C(C)C (single isomer, unassigned) [Compound 751] | – | – | – | – | – | 0.51 | 3.3 | 0.027 | IC50 (HCV replicon 1AQ30D; [6]): 0.996 nM; IC50 (HCV replicon 1B; HCV replicon 1B): 29 pM
19 | COC(=O)NC(C(=O)N1CCC[C@H]1c1ncc(-c2cc(F)c3c(c2)OC(c2ccc(C4CC4)s2)n2c-3cc3cc(-c4cnc([C@@H]5CCCN5C(=O)[C@@H](NC(=O)OC)C5CCOCC5)[nH]4)ccc32)[nH]1)C(C)(C)F (stereo partly drawn) [Compound 168] | 0.002 | 0.002 | 0.011 | – | 1.3 | – | – | – | IC50 (HCV replicon 1B; replicon 1B): 1.5 pM
20 | COC(=O)N[C@H](C(=O)N1CCC[C@H]1c1ncc(-c2cc(F)c3c(c2)OC(c2ccc(CC4CC4)s2)n2c-3cc3cc(-c4cnc([C@@H]5C[C@H]6C[C@H]6N5C(=O)[C@@H](NC(=O)OC)C(C)C)[nH]4)ccc32)[nH]1)C(C)C (single isomer, unassigned) [Compound 389] | 0.0137 | 0.0691 | 0.23 | 3.9 | 2.7 | – | – | – | –
21 | COC(=O)N[C@H](C(=O)N1CCC[C@H]1c1ncc(-c2cc(F)c3c(c2)OC(c2ccc(C4CC4)s2)n2c-3cc3cc(-c4cnc([C@@H]5C[C@H]6C[C@H]6N5C(=O)[C@@H](NC(=O)OC)C5CCOCC5)[nH]4)ccc32)[nH]1)C(C)C (single isomer, unassigned) [Compound 652] | – | – | – | – | – | – | 1.2 | – | IC50 (HCV replicon 1AQ30D; HCV replicon 1A Q30D, read-out: 1A Q30D IC50): 0.327 nM; IC50 (HCV replicon 1B; HCV replicon 1B): 1.7 pM; IC50 (HCV replicon 1AY93H; HCV replicon 1A Y93H, read-out: 1A Y93H IC50): 0.0331 nM; IC50 (HCV replicon 2B; HCV replicon 2B, read-out: 2B IC50): 0.0532 nM
